Measurements from patent US20160279175A1, “METHODS FOR REDUCING DEVELOPMENT OF RESISTANCE TO ANTIBIOTICS” (REGENTS OF THE UNIVERSITY OF MINNESOTA, priority 2015, published 2016).
Bridge positions count the residues as written; N and C are the ends. Ends that are not written are not given here.

How the values were obtained:
[1] = tested on: vancomycin-resistant E. faecium; format: cell-based, Enterococcus faecium; details: for synergy of the AMPs with the antibiotic: antibiotic combined with supernatant containing the three AMPs, data not shown; for activity of antibiotic alone against E. faecium: clinically relevant concentrations: 50 μg/mL streptomycin, 100 μg/mL ampicillin, 30 μg/mL rifampicin; for reduction of E. faecium counts, antibiotic combined with the three peptides: combination with Enterocin A, Enterocin P, Hiracin JM79
Procedure: L. lactis containing pNZCA3 was grown overnight in BHI. Cells were then re-inoculated in fresh BHI at an OD600 of 0.07-0.1. Because BHI contains ˜0.15 M NaCl, no additional salt was added for induction. Cells were then grown ˜6 hours then cell-free culture supernatant was obtained by centrifugation of culture at 12,000×g at 4° C. for 10 min, filtered through 0.2 μm pore-size filters (Whatman Int. Ltd., Maidstone, UK), and stored at −20° C. until use.
E. faecium was grown overnight in BHI at 37° C. and L. lactis-pNZCA3 was grown in BHI at 32° C. E. faecium was then inoculated at an OD600 of ˜0.06 into 5 ml fresh BHI broth, and allowed to grow to an OD600 of ˜0.1. For antibiotic experiments, 50 μg/mL streptomycin (Chem-Implex Int'l Inc., Wood Dale, Ill., U.S.A.), 100 μg/mL ampicillin (Sigma), or 30 μg/mL rifampicin (Gilbert et al., 2013, The Sanford Guide to Antimicrobial Therapy 2013 43 Pocth Edition|Rent 9781930808744|11930808747. Antimicrob. Ther.) were added to the fresh BHI broth. Cultures were then supplemented with 10% of the previously obtained supernatant or 10% of L. lactis-pNZCA3 culture at an OD600 of ˜0.1 (time=0 hours). […] Samples of the cultures were then taken at different times, serial diluted, and plated (10 μL of each dilution) on GM17 plates containing 5 μg/mL rifampicin (GM17-Rif) or 5 μg/mL chloramphenicol (GM17-Cm) and incubated overnight at 37° C. The following day E. faecium or L. lactis colony forming units (CFU) were counted on GM17-Rif and GM17-Cm plates, respectively.
Data for FIG. 9 represent technical triplicates obtained from one of three individual tests.

[2] = tested on: wild type E. faecium 8E9 and EntA/EntP/HirJM79-resistant mutant of E. faecium 8E9; assay: Agar diffusion assay of pure Enterocin B; format: cell-based, Enterococcus faecium; details: 1 μg and 0.1 μg enterocin B
Procedure: For the agar diffusion activity assays, liquid brain heart infusion (BHI) agar was inoculated with 0.5 μL of E. faecium overnight culture per mL medium. The inoculated agar was then poured into a petri dish and allowed to solidify. For all L. lactis halos, a colony of L. lactis was touched with a sterile pipette tip then stabbed into the inoculated agar. For purified EntB halos (FIG. 14 only), 1 μL of the appropriate EntB concentration was dropped onto the inoculated agar and allowed to dry completely. Dry plates were then covered and incubated overnight at 37° C. for imaging the following day.

| Compound | synergy of the AMPs with the antibiotic [1] | activity of antibiotic alone against E. faecium [1] | reduction of E. faecium counts, antibiotic combined with the three peptides [1] | halo size, wild type versus class IIa resistant mutant [2] |
| --- | --- | --- | --- | --- |
| CC1(C)S[C@@H]2[C@H](NC(=O)[C@H](N)c3ccccc3)C(=O)N2[C@H]1C(=O)O [ampicillin] | minor | none of these drugs showed significant activity | did not exhibit similarly impressive reductions | – |
| O=C(N[C@H](CO)[C@H](O)c1ccc([N+](=O)[O-])cc1)C(Cl)Cl [chloramphenicol] | – | – | did not exhibit similarly impressive reductions | – |
| CC[C@H]1OC(=O)[C@H](C)[C@@H](O[C@H]2C[C@@](C)(OC)[C@@H](O)[C@H](C)O2)[C@H](C)[C@@H](O[C@@H]2O[C@H](C)C[C@H](N(C)C)[C@H]2O)[C@](C)(O)C[C@@H](C)C(=O)[C@H](C)[C@@H](O)[C@]1(C)O [erythromycin] | – | – | did not exhibit similarly impressive reductions | – |
| [H]/N=C(/N)N[C@H]1[C@H](O)[C@@H](O)[C@H](O[C@@H]2O[C@@H](C)[C@](O)(C=O)[C@H]2O[C@@H]2O[C@@H](CO)[C@H](O)[C@@H](O)[C@@H]2NC)[C@@H](N/C(N)=N\[H])[C@@H]1O [streptomycin] | minor | none of these drugs showed significant activity | – | – |
| Enterocin B: 53 amino acid bacteriocin of Enterococcus faecium, SEQ ID NO:42, disulfide bridge 23-52, synthesized by Ontores (ENDHRMPNELNRPNNLSKGGAKCGAAIAGGLFGIPKGPLAWAAGLANVYSKCN; disulfide 23-52) | – | – | – | similarly sized halos for both the wild type and resistant mutant |
